Data published in US20050038048A1, “Use of 7h-pyrrollo{2,3-d}pyrimidine derivatives in the treatment of solid tumor diseases” (priority 2001, published 2005).

Tests used:
NSCLC = assay: Treatment of a human patient suffering from NSCLC with PKI166; type: in vivo; conditions: 8 weeks, 450 mg/day except on day 2, 16 and 30, partial response = greater than or equal to 50% reduction in measurable or evaluable disease without progression
Experimental: A human patient suffering from NSCLC is treated for a period of 8 weeks with 450 mg/day of PKI166 except on day 2, 16 and 30 on which days no drug is applied.

renal cell cancer = assay: Treatment of a human patient suffering from renal cell cancer with PKI166; type: in vivo; conditions: stable disease = less than 50% decrease or less than 25% increase in measurable or evaluable disease
Experimental: A human patient suffering from renal cell cancer is treated for a period of 16 weeks in 4 cycles consisting of administration of 600 mg of PKI166 daily for two weeks followed by 2 weeks without administering the drug. […] A human patient suffering from renal cell cancer is treated for a period of 16 weeks with 400 mg of PKI166 on Monday, Wednesday and Friday of each week.

SMILES | melting point | also measured
C[C@@H](Nc1ncnc2[nH]c(-c3ccc(CN4CCN(C)CC4)cc3)cc12)c1ccccc1 [Example 1, {6-[4-(4-Methyl-piperazin-1-ylmethyl)-phenyl]-7H-pyrrolo[2,3-d]pyrimidin-4-yl}-((R)-1-phenyl-ethyl)-amine] | 248 to 250 °C | –
C[C@@H](Nc1ncnc2[nH]c(-c3ccc(CN4CCOCC4)cc3)cc12)c1ccccc1 [Example 7, [6-(4-Morpholin-4-ylmethyl-phenyl)-7H-pyrrolo[2,3-d]pyrimidin-4-yl]-((R)-1-phenyl-ethyl)-amine] | 263 to 265 °C | –
C[C@@H](Nc1ncnc2[nH]c(-c3ccc(CN(C)C)cc3)cc12)c1ccccc1 [Example 5, [6-(4-Dimethylaminomethyl-phenyl)-7H-pyrrolo[2,3-d]pyrimidin-4-yl]-((R)-1-phenyl-ethyl)-amine] | 241 to 243 °C | –
CCN(CC)Cc1ccc(-c2cc3c(N[C@H](C)c4ccccc4)ncnc3[nH]2)cc1 [Example 2, [6-(4-Diethylaminomethyl-phenyl)-7H-pyrrolo[2,3-d]pyrimidin-4-yl]-((R)-1-phenyl-ethyl)-amine] | 246 to 248 °C | –
C[C@@H](Nc1ncnc2[nH]c(-c3ccc(CN4CCCC4)cc3)cc12)c1ccccc1 [Example 4, ((R)-1-Phenyl-ethyl)-[6-(4-pyrrolidin-1-ylmethyl-phenyl)-7H-pyrrolo[2,3-d]pyrimidin-4-yl]-amine] | 254 to 256 °C | –
CC1CN(Cc2ccc(-c3cc4c(N[C@H](C)c5ccccc5)ncnc4[nH]3)cc2)CC(C)N1 (stereo partly drawn) [Example 8, {6-[4-(3,5-Dimethyl-piperazin-1-ylmethyl)-phenyl]-7H-pyrrolo[2,3-d]pyrimidin-4-yl}-((R)-1-phenyl-ethyl)-amine] | 208 to 210 °C | –
C[C@@H](Nc1ncnc2[nH]c(-c3ccc(CNCCN4CCOCC4)cc3)cc12)c1ccccc1 [Example 9, (6-{4-[(2-Morpholin-4-yl-ethylamino)-methyl]-phenyl}-7H-pyrrolo[2,3-d]pyrimidin-4-yl)-((R)-1-phenyl-ethyl)-amine] | 222 to 224 °C | –
C[C@@H](Nc1ncnc2[nH]c(-c3ccc(CN4CCCCC4)cc3)cc12)c1ccccc1 [Example 6, ((R)-1-Phenyl-ethyl)-[6-(4-piperidin-1-ylmethyl-phenyl)-7H-pyrrolo[2,3-d]pyrimidin-4-yl]-amine] | 246 to 248 °C | –
C[C@@H](Nc1ncnc2[nH]c(-c3ccc(O)cc3)cc12)c1ccccc1 [PKI166, (R)-6-(4-hydroxy-phenyl)-4-[(1-phenyl-ethyl)-amino]-7H-pyrrolo[2,3-d]pyrimidine] | – | disease response observed after treatment (NSCLC): partial response; disease response observed during treatment (renal cell cancer; 16 weeks in 4 cycles of 600 mg daily for two weeks followed by 2 weeks without drug): stable disease; disease response observed during treatment (renal cell cancer; 16 weeks, 400 mg on Monday, Wednesday and Friday of each week): stable disease
C[C@@H](Nc1ncnc2[nH]c(-c3ccc(CNC4CCOCC4)cc3)cc12)c1ccccc1 [Example 10, ((R)-1-Phenyl-ethyl)-(6-{4-[(tetrahydro-pyran-4-ylamino)-methyl]-phenyl}-7H-pyrrolo[2,3-d]pyrimidin-4-yl)-amine] | 253 to 255 °C | –
